Experimental data published in patent US8765805B2, “Ligand activators of the RAR receptors and pharmaceutical/cosmetic applications thereof” (Galderma Research & Development, priority 2003, dated 2014).

Columns and labels:
Assay type in all cases: cell-based
Conditions in all cases: HeLa stable transfectants; for Kd: Schild regression vs reference antagonist, read-out: Kdapp; for AC50: concentration that gives 50% of the activity
[1] = biological target: T1, RAR alpha (Homo sapiens, UniProt P10276); assay: Transactivation test, HeLa reporter cells (luciferase), RAR alpha
T1 sequence (P10276 183-417 limits assumed): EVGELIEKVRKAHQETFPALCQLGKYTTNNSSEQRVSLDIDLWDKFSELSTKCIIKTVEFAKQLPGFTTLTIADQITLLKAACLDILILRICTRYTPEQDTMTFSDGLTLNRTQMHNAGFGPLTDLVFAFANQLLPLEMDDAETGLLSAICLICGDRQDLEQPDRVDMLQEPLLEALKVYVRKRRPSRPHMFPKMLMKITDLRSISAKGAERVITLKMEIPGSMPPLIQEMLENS
Description: (§1) The activation of receptors with an agonist (activator) in HeLa cells leads to the expression of a reporter gene, luciferase, which, in the presence of a substrate, generates light. The activation of the receptors may thus be measured by quantifying the luminescence produced after incubating the cells in the presence of a reference antagonist. The activating products displace the antagonist from its site, thus allowing activation of the receptor. The activity is measured by quantifying the increase in light produced. This measurement makes it possible to determine the activating activity of the compounds according to the invention.
(§2) Determination of the Kdapp:
(§3) In this study, a constant is determined which is the affinity of the molecule for the receptor. Since this value can fluctuate depending on the basal activity and the expression of the receptor, it is referred to as the Kdapparent (KdApp).
(§4) To determine this constant, the cells are brought into contact with a concentration of the test product and a concentration of the reference antagonist, 4-(5,5-dimethyl-8-p-tolyl-5,6-dihydronaphth-2-ylethynyl)benzoic acid. Measurements are also taken for the total agonist (4-[2-(5,5,8,8-tetramethyl-5,6,7,8-tetrahydronaphth-2-yl)propenyl]benzoic acid) and inverse agonist, 4-{(E)-3-[4-(4-tert-butylphenyl)-5,5,8,8-tetramethyl-5,6,7,8-tetrahydro-2-naphthyl]-3-oxopropenyl}benzoic acid, controls.
(§5) These crossed curves make it possible to determine the AC50 values (concentration at which 50% activation is observed) for the reference ligand at various concentrations of test product. These AC50 values are used to calculate the Schild regression by plotting a straight line corresponding to the Schild equation (“quantitation in receptor pharmacology” Terry P. Kenakin, Receptors and Channels, 2001, 7, 371-385).
(§6) In the case of an agonist, an AC50 value (concentration that gives 50% of the activity) is calculated by plotting the curve of the product at the concentration of the reference ligand that gives 80% activation.
(§7) The HeLa cell lines used are stable transfectants containing the plasmids ERE-βGlob-Luc-SV-Neo (reporter gene) and RAR (α, β, γ) ER-DBD-puro. These cells are inoculated into 96-well plates at a rate of 10,000 cells per well in 100 μl of DMEM medium without phenol red, and supplemented with 10% defatted calf serum. The plates are then incubated at 37° C. and 7% CO2 for 4 hours.
(§8) The various dilutions of the test products, of the reference ligand (4-(5,5-dimethyl-8-p-tolyl-5,6-dihydronaphth-2-yl)ethynyl)benzoic acid, of the 100% control (100 nM 4-[2-(5,5,8,8-tetramethyl-5,6,7,8-tetrahydro-2-naphthyl)propenyl]benzoic acid) and of the 0% control (500 nM 4-{(E)-3-[4-(4-tert-butylphenyl)-5,5,8,8-tetramethyl-5,6,7,8-tetrahydro-2-naphthyl]-3-oxopropenyl}benzoic acid) are added at a rate of 5 μl per well. The plates are then incubated for 18 hours at 37° C. and 7% CO2.
(§9) The culture medium is removed by turning over and 100 μl of a 1:1 PBS/luciferine mixture is added to each well. After 5 minutes, the plates are read using the luminescence detector.

[2] = biological target: T2, RAR beta (Homo sapiens, UniProt P10826); assay: Transactivation test, HeLa reporter cells (luciferase), RAR beta
T2 sequence (P10826 183-417 limits assumed): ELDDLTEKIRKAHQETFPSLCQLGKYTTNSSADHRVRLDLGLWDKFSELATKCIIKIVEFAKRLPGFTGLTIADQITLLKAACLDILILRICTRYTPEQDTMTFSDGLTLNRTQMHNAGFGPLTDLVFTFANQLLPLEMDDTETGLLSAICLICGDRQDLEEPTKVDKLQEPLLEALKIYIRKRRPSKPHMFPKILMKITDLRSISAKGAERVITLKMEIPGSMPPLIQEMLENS
Description: as §1, §2, §3, §4, §5, §6, §7, §8, §9

[3] = biological target: T3, RAR gamma (Homo sapiens, UniProt P13631); assay: Transactivation test, HeLa reporter cells (luciferase), RAR gamma
T3 sequence (P13631 185-419 limits assumed): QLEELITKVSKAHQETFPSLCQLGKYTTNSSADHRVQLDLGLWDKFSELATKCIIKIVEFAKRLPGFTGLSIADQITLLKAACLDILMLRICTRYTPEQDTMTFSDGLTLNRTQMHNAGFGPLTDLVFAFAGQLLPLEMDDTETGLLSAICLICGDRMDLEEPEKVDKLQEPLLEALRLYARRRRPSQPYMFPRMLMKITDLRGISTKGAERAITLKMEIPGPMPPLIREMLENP
Description: as §1, §2, §3, §4, §5, §6, §7, §8, §9

SMILES: COCCOc1cc(C(O)C#Cc2ccc(C(=O)O)cc2)cc2c1C(C)(C)CCC2(C)C (stereo not drawn) [Ex 1, 4-{3-Hydroxy-3-[4-(2-methoxyethoxy)-5,5,8,8-tetramethyl-5,6,7,8-tetrahydronaphth-2-yl]prop-1-ynyl}benzoic acid]
- Kd [1]: 0.06 µM
- AC50 [1]: 0.4 µM
- Kd [2]: 0.06 µM
- AC50 [2]: 0.045 µM
- Kd [3]: 0.002 µM
- AC50 [3]: 0.002 µM

SMILES: CCOCCOc1cc(C(O)C#Cc2ccc(C(=O)O)cc2)cc2c1C(C)(C)CCC2(C)C (stereo not drawn) [Ex 2, 4-{3-Hydroxy-3-[4-(2-ethoxyethoxy)-5,5,8,8-tetramethyl-5,6,7,8-tetrahydronaphth-2-yl]-prop-1-ynyl}benzoic acid]
- Kd [1]: 1 µM
- AC50 [1]: 0.9 µM
- AC50 [2]: 0.5 µM
- Kd [3]: 0.03 µM
- AC50 [3]: 0.05 µM

SMILES: CCOCCOc1cc(C(O)C#Cc2ccc(C(=O)O)c(O)c2)cc2c1C(C)(C)CCC2(C)C (stereo not drawn) [Ex 3, 4-{3-Hydroxy-3-[4-(2-ethoxyethoxy)-5,5,8,8-tetramethyl-5,6,7,8-tetrahydronaphth-2-yl]prop-1-ynyl}-2-hydroxybenzoic acid]
- Kd [1]: 0.03 µM
- AC50 [1]: 0.15 µM
- Kd [2]: 0.12 µM
- AC50 [2]: 0.1 µM
- Kd [3]: 0.001 µM
- AC50 [3]: 0.001 µM

SMILES: CCOCCOc1cc([C@H](O)C#Cc2ccc(C(=O)O)cc2)cc2c1C(C)(C)CCC2(C)C [Ex 4, 4-{3-Hydroxy-3-[4-(2-ethoxyethoxy)-5,5,8,8-tetramethyl-5,6,7,8-tetrahydronaphth-2-yl]-prop-1-ynyl}benzoic (S)-acid]
- Kd [1]: 0.12 µM
- AC50 [1]: 0.8 µM
- AC50 [2]: 0.2 µM
- Kd [3]: 0.001 µM
- AC50 [3]: 0.0012 µM

SMILES: CCOCCOc1cc([C@@H](O)C#Cc2ccc(C(=O)O)cc2)cc2c1C(C)(C)CCC2(C)C [Ex 5, 4-{3-Hydroxy-3-[4-(2-ethoxyethoxy)-5,5,8,8-tetramethyl-5,6,7,8-tetrahydronaphth-2-yl]prop-1-ynyl}benzoic (R)-acid]
- Kd [1]: 0.12 µM
- AC50 [1]: 0.8 µM
- AC50 [2]: 0.2 µM
- Kd [3]: 0.001 µM
- AC50 [3]: 0.0018 µM
